Columns and labels:
Slug [1] = target: T1, Slug (Xenopus laevis, UniProt Q91924); test: EMSA, inhibition of Slug DNA-binding in embryo lysates; format: biochemical; settings: relative to Co(III)-Ebox at 1 μM
T1 construct: 5x myc; expressed in transfected cells; host or cells: Xenopus laevis embryos injected with in vitro transcribed mRNA; whole embryo lysate, stage 8 / blastula
T1 sequence (Q91924 1-266): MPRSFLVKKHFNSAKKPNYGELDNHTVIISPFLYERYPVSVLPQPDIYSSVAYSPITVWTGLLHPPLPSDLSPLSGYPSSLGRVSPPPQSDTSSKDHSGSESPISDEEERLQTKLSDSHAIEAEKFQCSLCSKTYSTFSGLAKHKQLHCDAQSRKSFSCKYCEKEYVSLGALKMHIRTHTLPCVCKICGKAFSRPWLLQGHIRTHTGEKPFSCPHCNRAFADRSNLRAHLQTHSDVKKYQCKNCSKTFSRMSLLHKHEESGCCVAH
Experimental: (§1) (A) Lysates of blastula stage embryos (lane 1) or embryos with overexpressed Slug protein (lanes 2-6) were incubated with increasing concentrations of Co(III)-Ebox of 0, 0.01, 0.1 and 1 μM for 15 min prior to challenge with a ^32P-labeled Ebox containing Slug DNA probe for 30 min. (B) Lysates of blastula stage embryos injected with Slug, Snail or Sip1 mRNA (lanes 1-9) or Slug, p105, MitF and Lef-1 mRNA (lanes 10-21) were incubated with 0 or 1 μM Co(III)-Ebox for 15 min prior to challenge with ^32P-labeled Slug probe for 30 min and analyzed by EMSA on a native gel. […] Samples were analyzed by EMSA on a native TBE/acrylamide gel.
(§2) Lysates of blastula stage embryos injected with Slug mRNA were incubated with increasing concentrations of Co(1II)-Schiff base of 0, 1.5, 5, 15, 50, 150 and 500 μM (lanes 2-8) for 15 min, then incubated with ^32P-labeled Slug probe for 30 min and visualized by EMSA. Lysates of embryos injected with Slug (lanes 10 and 11), p105 (lanes 13 and 14), MitF (lanes 16 and 17) or Lef-1 (lanes 19 and 20) mRNA were incubated with 0 or 150 μM Co(1II)-Schiff base for 15 min and labeled with ^32P-labeled Slug probe for 30 min. Uninjected embryos are presented in lanes 1, 9, 12, I5 and 18. Samples were separated by EMSA. […]

Lef-1 = target: T2, Lef-1 (Homo sapiens, UniProt Q9UJU2); test: EMSA, inhibition of Lef-1 DNA-binding in embryo lysates; format: biochemical, Xenopus laevis; settings: high concentrations (150 μM per FIG. 4 legend)
T2 construct: 5x myc; expressed in transfected cells; host or cells: Xenopus laevis embryos injected with in vitro transcribed mRNA; whole embryo lysate
Experimental: as §1, §2

p105 = target: T3, p105 (Homo sapiens, UniProt P19838); test: EMSA, inhibition of p105 DNA-binding in embryo lysates; format: biochemical, Xenopus laevis; settings: high concentrations (150 μM per FIG. 4 legend)
T3 construct: 5x myc; expressed in transfected cells; host or cells: Xenopus laevis embryos injected with in vitro transcribed mRNA; whole embryo lysate
T3 sequence (P19838 1-968): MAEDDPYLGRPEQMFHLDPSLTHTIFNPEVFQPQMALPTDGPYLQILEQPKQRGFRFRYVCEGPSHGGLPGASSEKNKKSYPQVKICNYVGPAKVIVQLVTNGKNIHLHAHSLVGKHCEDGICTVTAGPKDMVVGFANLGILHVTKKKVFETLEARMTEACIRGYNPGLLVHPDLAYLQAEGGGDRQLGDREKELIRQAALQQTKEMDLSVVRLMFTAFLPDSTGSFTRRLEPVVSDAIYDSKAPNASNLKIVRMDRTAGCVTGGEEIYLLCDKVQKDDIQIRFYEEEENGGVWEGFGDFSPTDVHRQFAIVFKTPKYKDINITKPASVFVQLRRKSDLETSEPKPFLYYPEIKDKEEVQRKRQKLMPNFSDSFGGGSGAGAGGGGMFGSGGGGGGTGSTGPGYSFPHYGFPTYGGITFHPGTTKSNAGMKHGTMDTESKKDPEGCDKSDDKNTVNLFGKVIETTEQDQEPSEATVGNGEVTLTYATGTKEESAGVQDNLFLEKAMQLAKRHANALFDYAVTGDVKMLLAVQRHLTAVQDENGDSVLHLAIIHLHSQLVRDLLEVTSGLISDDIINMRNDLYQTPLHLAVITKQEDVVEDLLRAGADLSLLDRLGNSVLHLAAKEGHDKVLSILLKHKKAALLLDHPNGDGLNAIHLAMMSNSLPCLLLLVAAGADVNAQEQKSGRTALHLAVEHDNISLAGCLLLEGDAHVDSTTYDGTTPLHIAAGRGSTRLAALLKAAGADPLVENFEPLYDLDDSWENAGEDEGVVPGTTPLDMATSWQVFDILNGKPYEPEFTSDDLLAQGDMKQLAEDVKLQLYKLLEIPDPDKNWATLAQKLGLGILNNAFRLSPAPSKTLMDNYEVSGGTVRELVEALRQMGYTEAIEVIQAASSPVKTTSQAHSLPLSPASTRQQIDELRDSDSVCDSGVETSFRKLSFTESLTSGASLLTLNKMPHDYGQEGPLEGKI
Experimental: as §1, §2

Snail = test: E-cadherin promoter firefly luciferase reporter (Snail transcriptional repression); format: cell-based; settings: MDA-MB-231 cells, up to 250 nM
Experimental: MDA-MB-231 metastatic breast cancer cells express Snail1 in the nucleus. A firefly luciferase plasmid with the E-cadherin promoter region was added upstream of the transcriptional start site Snail (SEE FIG. 7A). Binding of Snail to the E-boxes thereby repress luciferase transcription and therefore luciferase activity.

Slug [2] = target: T1, Slug; test: In vivo assay: embryos injected with agent and Slug RNA, EMSA at blastula stage; settings: 10 fold excess (10 μM) injected
Experimental: Pigmented and albino eggs were obtained and fertilized using standard protocol (Bellmeyer et al. (2003) Dev Cell 4(6):827-839, herein incorporated by reference in its entirety). All embryos are staged using the Niewenkoop-Faber method. Embryos were injected into one-cell at stage 1 in 0.4× modified ringer's (MR) solution with 3% Ficoll then transferred to 0.1×MR until harvesting. mRNA was transcribed in vitro using the SP6 Message Machine Kit (Ambion, Austin, Tex.). Concentrations of mRNA injected into one cell at the 2-cell stage range from 5-50 pg. XSip1 in the vector pCS2+ was obtained from A. Eisaki (Eisaki (2000) Biochem Biophys Res Commun 271(1):151-157, herein incorporated by reference in its entirety). cDNA was generated using PCR amplification and a high fidelity polymerase (Pfu; Roche, Indianapolis Ind.). cDNAs were cloned into a pCS2 variant that adds 5 myc tags to either the N- or C-terminus. All constructs were confirmed by sequencing using a ABI 3730 high-throughput DNA Sequencer.
For in vitro assays, whole embryo lysates were prepared by lysing 5 stage 8 embryos in 100 μL of lysis buffer (1×PBS, 1% NP-40 and Complete protease inhibitor cocktail tablets; Roche, Indianapolis, Ind.). […]

T2 sequence (Q9UJU2 whole entry, species assumed): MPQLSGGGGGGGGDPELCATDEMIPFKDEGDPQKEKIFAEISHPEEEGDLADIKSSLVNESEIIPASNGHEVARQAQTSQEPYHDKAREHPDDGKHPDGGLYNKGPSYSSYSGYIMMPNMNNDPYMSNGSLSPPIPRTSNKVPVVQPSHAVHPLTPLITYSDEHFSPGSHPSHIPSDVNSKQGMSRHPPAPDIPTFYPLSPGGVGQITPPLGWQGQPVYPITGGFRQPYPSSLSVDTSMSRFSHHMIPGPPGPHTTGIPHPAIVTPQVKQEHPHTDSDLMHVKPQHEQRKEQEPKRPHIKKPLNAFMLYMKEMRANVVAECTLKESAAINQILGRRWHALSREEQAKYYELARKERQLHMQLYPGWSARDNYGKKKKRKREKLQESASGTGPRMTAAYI

## [Co(III)(heptanoic acido)(acacen)(NH3)2]Cl [Co(III)-Schiff base]
Slug [1]
  Excess required to achieve inhibition of Slug comparable to Co(III)-Ebox at 1 μM: 150 fold
Lef-1
  Inhibition of Lef-1 DNA-binding: inhibited
p105
  Inhibition of p105 DNA-binding: inhibited
Snail
  Luciferase activity of E-cadherin promoter construct (Snail transcriptional activity): did not affect
Slug [2]
  Inhibition of Slug function (DNA-binding) after injection in vivo: not inhibited
